We go through 13 molecules from PubChem BioAssay AID1845216 (Molecular Pharmacology Branch, DTP, NCI, 2023).

The test has as its system SW 982 tumor spheroid viability. The experiment in a line: Anticancer human tumor SW 982 cell line growth inhibition.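 For all read-outs here: spheroids exposed to compound for 7 days before readout.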 As to conditions: spheroids with HUVEC and MSC; for viability, T/C: stronger effect = lower value. An excerpt: Multicellular complex tumor spheroid response to DNA repair inhibitors in combination with DNA-damaging drugs
This study explores the anticancer activities of DNA-damaging drugs and inhibitors of DNA damage repair, both as single agents and in combinations. Complex tumor spheroids comprised of malignant cells, endothelial cells and mesenchymal stem cells served as an in vitro model for human solid tumors. This model system incorporates physiologically relevant features and patient-derived or established malignant cell lines with clinically relevant genetic alterations from many tumor types. Twenty-six patient-derived or established malignant cell lines were evaluated representing sarcoma, melanoma, small cell lung cancer (SCLC), non-small cell lung cancer (NSCLC), as well as bladder, ovarian and pancreatic cancers. The concentration ranges selected for each drug and investigational agent were based upon clinically achievable concentrations if the clinical Cmax of the agent was known.
Compounds. The drugs and compounds olaparib (NSC753686), talazoparib (NSC767125), berzosertib (NSC777718), elimusertib (NSC800525), nedisertib (NSC802822), VX-984 (NSC792969), AZD-1390 (NSC803789), temozolomide (NSC362856), topotecan (NSC609699), trabectedin (NSC813783), staurosporine (NSC755774), and gemcitabine (NSC613327) were obtained from the National Cancer Institute (NCI) Developmental Therapeutics Program Chemical Repository. The FDA-approved anticancer drug set is available from the Developmental Therapeutics Program at https://dtp.cancer.gov/organization/dscb/obtaining/available_plates.htm. […] The stock solutions were prepared in dimethyl sulfoxide (DMSO, Sigma-Aldrich, St. Louis, MO, cat. D2650) at 400-fold the tested concentration and stored at -70 degrees C. Prior to their use, the stock solutions were diluted in fresh medium and the final DMSO concentration in the assay was 0.25% (v/v). All drugs and investigational agents were tested over a range starting from a high concentration at or near the clinical Cmax and decreasing in half-log increments. If the clinical Cmax for an agent had not been determined, the highest concentration tested was 10 microM.
Cell Lines. The patient-derived cancer cell (PDC) lines: 156681-154-R-J1-PDC, 283228-195-R-J1-PDC, 287954-098-R-J1-PDC, 292921-168-R-J2-PDC, 349418-098-R-PDC, 425362-245-T-J1-PDC, 556581-035-R-J1-PDC, and BL0293-F563-PDC were received from the NCI Patient-Derived Models Repository (PDMR, https://pdmr.cancer.gov). The established cell lines HS-SY-2 (RRID:CVCL_8719), MPNST, and SYO-1 (RRID:CVCL_7146) were obtained from the Sloan Kettering Institute. The alveolar soft parts sarcoma cell line ASPS-1 (RRID:CVCL_S738) was established at the NCI and grown from internal seed stocks. The following established cell lines were purchased from the American Type Culture Collection (ATCC, Manassas, VA): G-401 (ATCC, cat. CRL-1441, RRID:CVCL_0270), SW982 (ATCC, cat. HTB-93, RRID:CVCL_1734), VA-ES-BJ (ATCC, cat. CRL-2138, RRID:CVCL_1785), NCI-H719 (ATCC, cat. CRL-5837, RRID:CVCL_1582), NCI-H196 (ATCC, cat. CRL-5823, RRID:CVCL_1509), NCI-H841 (ATCC, cat. CRL-5845, RRID:CVCL_1595), NCI-H1618 (ATCC, cat. CRL-5879, RRID:CVCL_1480), NCI-H1876 (ATCC, cat. CRL-5902, RRID:CVCL_1503), DMS 114 (ATCC, cat. CRL-2066; RRID:CVCL_1174), NCI-H211 (ATCC, cat. CRL-5824; RRID:CVCL_1529), and SW 1271 (ATCC, cat. CRL-2177, RRID:CVCL_1716). The small cell lung cancer cell line COR-L88 was purchased from Sigma-Aldrich (cat. 92031917-1VL, RRID:CVCL_1141). The non-small cell lung cancer cell lines NCI-H226 (RRID:CVCL_1544) and NCI-H322M (RRID:CVCL_1557) were established at the NCI and grown from internal seed stocks. Pooled donor human umbilical vein endothelial cells (HUVEC, Lonza, cat. CC-2519) and human mesenchymal stem cells (hMSC, Lonza, cat. PT-2501) were purchased from Lonza (Walkersville, MD).
Cell Culture. All cells were maintained in an incubator at 37 degrees C and 5% CO2 with 95% humidity. […]

The mark [1] stands for this setting: compound alone, run of 12/02/2019.
Where [2] appears, read: compound alone, run of 12/12/2019.

pIC50: −log10 of the molar value. Where “and” joins values, the source holds several entries; their conditions need not be identical. Equal values may be shown once. Where only a bound is given, the exact number is not on record here.

What is called viability, T/C is the result in the treated group divided by that in the control group, in per cent. One may read the pIC50 as the IC50 on a negative log10 scale, so that one unit is a factor of ten. `CC(C)n1c(=O)n(C)c2cnc3cc(F)c(-c4ccc(OCCCN5CCCCC5)nc4)cc3c21`: the viability, T/C is, setting by setting: (compound 0.0316 µM) 99% and 107% and 96.4%; (compound 0.1 µM) 87.8% and 104% and 101%; (compound 0.316 µM) 91.9% and 96% and 90.8%; (compound 1 µM) 87% and 91.9% and 71.7%; (compound 3.16 µM) 68.2% and 74.7% and 61.6%; (compound 10 µM) 34.8% and 48.2% and 35.8%. Also, the pIC50 (curve of compound) is 5.23 and 5.03 and 5.31.
For the molecule `CC1COCCN1c1cc(-c2ccnn2C)c2ccnc(-c3ccn[nH]3)c2n1` (stereo not given), the viability, T/C is 27.4% and 44.4% and 38.4% (compound 0.0316 µM); 20.4% and 25.4% and 17.1% (compound 0.1 µM); 16.2% and 17.9% and 12.3% (compound 0.316 µM); 13.2% and 15.2% and 10.5% (compound 1 µM); 20% and 15.6% and 11% (compound 3.16 µM); 22.1% and 22.6% and 14.1% (compound 10 µM). Further, the pIC50 (curve of compound) is above 7.50.
Turning to `CC[C@@]1(O)C(=O)OCc2c1cc1n(c2=O)Cc2cc3c(CN(C)C)c(O)ccc3nc2-1`, the viability, T/C is 93.7% [middle of 10 runs] (compound 0.003 µM); 87.9% [middle of 10 runs] (compound 0.00949 µM); 81.2% [middle of 10 runs] (compound 0.03 µM); 70.1% [middle of 10 runs] (compound 0.0949 µM); 51.5% [middle of 10 runs] (compound 0.3 µM). Also, the pIC50 runs as follows: under setting [1], < 6.52 and 6.55; under setting [2], < 6.52 and 6.60 and 6.54.
For `CNCc1ccc(-c2cc(-c3nc(-c4ccc(S(=O)(=O)C(C)C)cc4)cnc3N)on2)cc1`, the viability, T/C (compound 0.00949 µM) is 94.4% and 97.7% and 104%; the viability, T/C (compound 0.03 µM) was 94.6% and 94.9% and 100%; the viability, T/C (compound 0.0949 µM) was 78.7% and 84% and 84.3%; the viability, T/C (compound 0.3 µM) is 43.7% and 49.3% and 31.1%; the viability, T/C (compound 0.949 µM) is 28% and 32.8% and 19.9%; the viability, T/C (compound 3 µM) was 13.5% and 17.2% and 2.19%. Besides, under “curve of compound”, the pIC50 was 6.58 and 6.47 and 6.69.
As for `COc1cc(C)[nH]c(=O)c1CN1CCc2c(Cl)cc(C(OC)C3COC3)c(Cl)c2C1=O` (stereo not given), the viability, T/C by setting is: (compound 0.0316 µM) 72.5% and 105% and 108%; (compound 0.1 µM) 94.6% and 111% and 95.2%; (compound 0.316 µM) 100% and 109% and 89.6%; (compound 1 µM) 108% and 107% and 93.8%; (compound 3.16 µM) 113% and 110% and 96.4%; (compound 10 µM) 94.8% and 100% and 98.8%. Also, for the setting “curve of compound”, the pIC50 is below 5.00.
As a reminder, the IC50 is the concentration at which inhibition is half-maximal. As for `COc1cc2c(cc1O)CCNC21CSC2c3c(OC(C)=O)c(C)c4c(c3C(COC1=O)N1C(O)C3Cc5cc(C)c(OC)c(O)c5C(C21)N3C)OCO4` (stereo not given), the viability, T/C (compound 0.003 µM) was 0.57% [middle of 10 runs]. Besides, the IC50 under setting [2] is 0.667 nM [middle of 10 runs].
Turning to `COc1ccc([C@@H](O)c2cc(-c3ncnc4cc(N5CCOCC5)ccc34)c(F)cc2Cl)nn1`, the viability, T/C by setting is: (compound 0.0316 µM) 88.1% and 102% and 107%; (compound 0.1 µM) 87.4% and 93.8% and 101%; (compound 0.316 µM) 90.2% and 97.4% and 99.4%; (compound 1 µM) 89.2% (2×) and 98.7%; (compound 3.16 µM) 90.2% and 85.7% and 95.6%; (compound 10 µM) 57.1% and 67% and 70.2%. The pIC50 (curve of compound) was below 5.00.
As for `Cc1cc(C)c(CNC(=O)c2cc(-c3ccc(CN4CCOCC4)cc3)cc3c2cnn3C2CCCC2)c(=O)[nH]1`, the viability, T/C is 111% and 101% and 106% (compound 0.0316 µM); 99.1% and 105% and 100% (compound 0.1 µM); 97.4% and 99.9% and 105% (compound 0.316 µM); 102% and 99.6% and 105% (compound 1 µM); 95.3% and 98.8% and 82% (compound 3.16 µM); 60.5% and 58.6% and 69% (compound 10 µM). For the same molecule, the pIC50 (curve of compound) is below 5.00.
Turning to `Cc1sc2c(c1C)C(c1ccc(Cl)cc1)=NC(CC(=O)Nc1ccc(O)cc1)c1nnc(C)n1-2` (stereo not given), the viability, T/C was 102% (2×) and 124% (compound 0.00949 µM); 105% and 104% and 90.7% (compound 0.03 µM); 79.4% and 83.4% and 72.8% (compound 0.0949 µM); 48.1% and 59.7% and 50.1% (compound 0.3 µM); 35.9% and 35.4% and 29.1% (compound 0.949 µM); 29.3% and 33.5% and 24.2% (compound 3 µM). Moreover, the pIC50 (curve of compound) is 6.56 and 6.31 and 6.55.
On to `Cn1ncnc1[C@H]1c2n[nH]c(=O)c3cc(F)cc(c23)N[C@@H]1c1ccc(F)cc1`, for which the viability, T/C by setting is: (compound 0.00949 µM) 80.9% and 90% and 94.8%; (compound 0.03 µM) 93.7% and 94.9% and 97.7%; (compound 0.0949 µM) 88.3% and 90.8% and 91.5%; (compound 0.3 µM) 77.9% and 87.9% and 79.2%; (compound 0.949 µM) 82.8% and 80.2% and 81.8%; (compound 3 µM) 75.7% and 82.9% and 62.9%. In addition, the pIC50 (curve of compound) is below 5.52.
As for `Cn1nnc2c(C(N)=O)ncn2c1=O`, the viability, T/C reads like this: (compound 1 µM) 96.1% [middle of 10 runs]; (compound 3.16 µM) 90.9% [middle of 10 runs]; (compound 10 µM) 79.1% [middle of 10 runs]; (compound 31.6 µM) 69.1% [middle of 10 runs]; (compound 100 µM) 57.1% [middle of 10 runs]. For the same molecule, the pIC50 under setting [1] was below 4.00.
Turning to `O=C(c1cc(Cc2n[nH]c(=O)c3ccccc23)ccc1F)N1CCN(C(=O)C2CC2)CC1`, the viability, T/C is, setting by setting: (compound 0.0949 µM) 99.7% and 104% and 98.4%; (compound 0.3 µM) 102% and 97.7% and 100%; (compound 0.949 µM) 96.9% and 88.7% and 98.6%; (compound 3 µM) 79.8% and 87.7% and 85.5%; (compound 9.49 µM) 63.3% and 54.4% and 49.8%; (compound 30 µM) 47.1% and 43.4% and 46.1%. For the same molecule, the pIC50 (curve of compound) is 4.61 and 4.80 and 5.03.
For the molecule `[2H]c1nc(C)nc([2H])c1-c1cc(NC[C@@H](C)c2cccc3c(C(=O)NC)ccnc23)ncn1`, the viability, T/C reads like this: (compound 0.0316 µM) 80.2% and 102% and 103%; (compound 0.1 µM) 91.6% and 101% and 97.5%; (compound 0.316 µM) 94% and 103% and 107%; (compound 1 µM) 96.9% and 96.7% and 114%; (compound 3.16 µM) 103% and 101% and 111%; (compound 10 µM) 103% and 94.8% and 108%. In addition, where the note is “curve of compound”, the pIC50 was below 5.00.
